From patent US4098823A, “Monospiroalkyl derivatives of prostaglandins” (Miles Laboratories, Inc., priority 1977, dated 1978)

Tests used:
[1] = test system: steroidogenesis in the adrenal glands; details: hypophysectomized rats; cited from earlier work
[2] = test system: female reproductive system; details: in vivo; cited from earlier work
adrenergic nerve endings = details: guinea pig; cited from earlier work
Gastric Secretion = experiment: Effects on Gastric Secretion in the Rat; assay type: in vivo; details: pylorus-ligated rat, subcutaneous, 2 x 1.5 mg/kg (total 3.0 mg/kg), 4 hours
Method: A procedure based on that described by Lipmann (J. Pharm. Pharmacol., 21:335 [1968]) was used to assess the influence of test compounds on gastric secretion. Rats of one sex weighing 150 to 200 g were randomly divided into groups of six animals each and fasted for 48 hours previously to the experiments, water being available adlibitum. The animals were anesthetized with ether, the abdomen was opened through a midline incision and the pylorus was ligated. Test compounds were diluted from stock solution so as to administer a dose of 1.5 mg/kg in a volume equivalent to 1 ml/kg. Subcutaneous injections were applied immediately after surgery and again 2 hours later, so that a total dose of 3.0 mg/kg was administered. Dilutions were made with phosphate buffer (pH 7.38) as recommended by Lee et al. (Prostaglandins 3:29 [1973]), in order to insure adequate stability of drugs at the subcutaneous depot. Each compound was tested in one group of rats; an additional control group received only the vehicle.
Four hours after pyloric ligation the animals were killed with ether, the cardias ligated and the stomachs removed. The volume of gastric secretion was measured and the contents centrifuged at 500 rpm for 10 minutes. Total acid in the supernatant was titrated against a 0.1 N sodium hydroxide solution and the amount expressed in mEq.
Volume and total acid values of the treated group were compared with those of the controls by the "T" test. Antisecretory activity was scored according to the following scale: […]

Femoral Blood Flow = experiment: Effects on Femoral Blood Flow in the Dog; assay type: in vivo; details: anesthetized mongrel dog, intraarterial, 0.001 to 10 mcg
Method: The peripheral vasodilator or constrictor effects of these compounds were determined in mongrel dogs of either sex, weighing between 10 and 20 kg anesthestized intravenously with 35 mg/kg of sodium pentobarbital. An external iliac artery was dissected immediately above the femoral arch for a length of approximately 5 cm and a previously calibrated, non-connulating electromagnetic flowmeter sensor with a lumen between 2.5 and 3.5 mm was placed snugly around the vessel. Cannulas were placed in a branch of the artery arising distally to the location of the flowmeter sensor for intraarterial drug administrations, in the contralateral femoral artery for systemic blood pressure recordings and in the trachea for artificial respiration with room air. Femoral blood flow and systemic blood pressure were continously recorded with an electromagnetic flowmeter and pressure tranducer, respectively.
After an adequate control period, test compounds were injected intraarterially at one log-spaced doses ranging from 0.001 to 10 mcg., in a volume of 0.5 ml and at 5 to 10 minute intervals. Maximum changes in bloodflow, as well as any variations in blood pressure, were tabulated for each dose in absolute values (ml/min. and mmHg). The calculations were made taking as control values those existing immediately before administration of each dose. The direction of the observed change (plus for increase and minus for decrease) was also noted. The dose changing bloodflow by 100 ml/min (ED100 ml/min) was calculated graphically and was used for scoring activity as follows: […]

[3] = test system: Blood Pressure and Heart Rate; experiment: Effects on Blood Pressure and Heart Rate in the Anesthetized Cat; assay type: in vivo; details: Felis catus, intravenous, 0.01 to 10.0 mcg/kg, scored only on hypotension, read-out: Test D Activity Value (ED50 mmHg, decrease in blood pressure);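 note: Anesthetized cats given intravenous doses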
Method: The acute effects of test compounds on blood pressure and heart rate were determined in cats of either sex anesthetized with a mixture of pentobarbital sodium (35 mg/kg, i.v.) and barbital sodium (100 mg/kg, i.v.). Cannulas were placed in the trachea to allow adequate spontaneous ventilation, in a femoral artery for blood pressure recording with a strain gage transducer, and in a saphenous vein for drug administration. Heart rate was recorded by means of a cardiotachometer driven by the R wave of the electrocardiogram. After a period of 10 minutes of stable recordings of blood pressure and heart rate, the test compound was administered intravenously at doses increasing from 0.01 to 10.0 mcg/kg, spaced one log and injected at 10 minutes intervals. All doses were injected in a volume of 0.1 ml/kg. Modifications of blood pressure and heart rate induced by the test compound were expressed both in absolute units (mmHg and beats/minutes) and as percent of values recorded immediately before administration of each dose. Biphasic responses were tabulated in the order in which they occur. The direction of the observed changes was also noted (+ for increases and - for decreases).
Activity of compounds in this test was judged only on the basis of the degree of hypotension observed. Thus, the ED50 mmHg (dose decreasing blood pressure by 50 mmHg) was calculated graphically and the compound scored according to the following scale: […]

rat stomach fundus = experiment: Cascade Assay, stomach (smooth muscle stimulant effect); assay type: cell-based; details: superfused, 50% of maximum (PGE1)
Method: (§1) The smooth muscle stimulant effects of test compounds were determined simultaneously in four different tissues that are known to be reactive to naturally occurring prostaglandins. Segments of rat stomach fundus, rat colon, chick rectum and rabbit aortic strip were obtained as described by: Vane, J. R., Brit. J. Pharmacol., 12: 344 (1957); Regoli, D. and Vane, J. R., Brit. J. Pharmacol., 23: 351 (1964); Mann, M. and West, G. B., Brit. J. Pharmacol., 5: 173 (1950); and Furchgott, R. F. and Bhadrakom, R., J. Pharmacol. Exper. Ther., 108: 129 (1953). One end of each preparation was tied to the bottom of a 10 ml tissue chamber and the other to a force displacement transducer (Grass FT-03) for continuous tension recording. The stomach, colon, and rectum segments were stretched to an initial tension of 1 g, while the aortic strip was subjected to 4 g. All preparations were left undisturbed for 1 hour prior to testing. The chambers were equipped with an external jacket through which water, maintained at 40° C, was circulated. Preparations were arranged one beneath the other in descending order (aorta, stomach, colon and rectum). Provision was made for bathing the four tissues successively so that they were superfused with the same fluid (Gaddum, H. J., Brit. J. Pharmacol., 6: 321 [1953]. The bathing fluid consisted of: Krebs bicarbonate solution aerated with a mixture of 95% O2 and 5% CO2 and warmed at 37° C; atropine sulphate (0.1 mcg/ml), phenoxybenzamine hydrochloride (0.1 mcg/ml), propranolol hydrochloride (3.0 mcg/ml), methysergide maleate (0.2 mcg/ml) and brompheniramine maleate (0.1 mcg/ml) were added to eliminate the possibility of smooth muscle responses being due to stimulation of cholinergic, adrenergic, serotonin or histamine receptors. The fluid was circulated by means of a roller pump and was allowed to drip over the preparations at a rate of 10 ml/minute.
(§2) Test compounds were diluted from stock solutions so as to administer quantities ranging from 0.001 100,000 ng in a volume of 0.5 ml. The compounds were applied by dripping on the uppermost tissue, at intervals of 10 to 20 minutes. Maximal increases in tension after each dose were measured and the results were used to plot dose-response curves. ED50 data (doses necessary to produce a response 50% of maximum) were then calculated graphically for each tissue.
(§3) Activity in each tissue was scored according to the following scale: […]

rat colon = experiment: Cascade Assay, colon (smooth muscle stimulant effect); assay type: cell-based; details: superfused, 50% of maximum (PGF2α)
Method: as §1, §2, §3

chick rectum = experiment: Cascade Assay, rectum (smooth muscle stimulant effect); assay type: cell-based; details: superfused, 50% of maximum (PGE1)
Method: as §1, §2, §3

rabbit aortic strip = experiment: Cascade Assay, aorta (smooth muscle stimulant effect); assay type: cell-based; details: superfused, 50% of maximum (PGA2)
Method: as §1, §2, §3

Rat Uterus = experiment: Effects on the Rat Uterus in Vitro; assay type: cell-based; details: Rattus norvegicus; in vitro, 29° C; response 50% that of carbachol; read-out: Test F Rat Uterus, Activity Value (ED50)
Method: The uterine stimulant effect of test compounds was determined in segments of uterus obtained from rats (140-160 g) pretreated subcutaneously with 1 mg/kg of diethyl-stilbesterol 18 hours before the experiment. The tissues were placed in 10 ml chambers filled with de-Jalon solution at 29° C, were aerated and bubbled with 95% O2 and 5% CO2, and were prepared for isometric recording with force displacement transducers. Preparations were stretched to an initial tension of 1 g and were left undisturbed for 30 minutes. Carbachol (1 mcg/ml) was then added to the bath and a response was recorded. After a 10 minute interval the carbachol procedure was repeated. Responses to increasing concentrations of a test compound (0.001 to 10 mcg/ml with one log intervals) were then recorded every 10 minutes. Preparations were washed four times after each response. All doses of compounds were administered in a 0.1 ml volume. Because it has been observed that the magnitude of the second response to carbachol (approximately 10% greater than the first) is close to the maximal response of the tissue, such value was taken as a measure of the sensitivity of a particular segment. Responses to each concentration of the test compound were expressed in terms of percentage of the second response to carbachol and the ED50 (dose producing a response 50% that of carbachol) was calculated graphically. Activity was scored according to the following scale: […]

[4] = test system: Human Platelet Aggregation; experiment: Inhibition of Human Platelet Aggregation; assay type: cell-based; details: in vitro
Method: The ability of test compounds to inhibit platelet aggregation was determined by a modification of the turbidometric technique of Born (Nature, 194:927 [1962]). Blood was collected from human volunteers who had not ingested aspirin or aspirin-containing products within the preceding two weeks in heparinized containers and was allowed to settle for one (1) hour. The platelet rich plasma (prp) supernates were collected and cooled. Siliconized glassware was used throughout.
In a representative assay 1.9 ml of PRP and 0.2 ml of test compound at the appropriate concentrations (0.001 to 100 mcgm), or 0.2 ml of distilled water (control procedure) were placed in sample cuvettes. The cuvettes were placed in a 37° C incubation block for 15 minutes, and then in a spectrophotometer linked to a strip chart recorder. After 30-60 seconds, 0.2 ml of a solution, prepared by diluting a calf-skin collagen solution 1:9 with Tyrodes' Solution, was added to each cuvette. Platelet aggregation was evidenced by a decrease in optical density.
An ED50 value was then determined graphically.

| Structure (SMILES) | steroidogenesis in the adrenal glands [1] | effect in the female reproductive system (fertility, labor, abortion) [2] | transmitter release from adrenergic nerve endings (adrenergic nerve endings) | Test B Activity Value (% decrease in acidity, inhibition of gastric secretion) (Gastric Secretion) | Test C Activity Value (ED100 ml/min, increase in femoral blood flow) (Femoral Blood Flow) | ED (50 mmHg) [3] | Test E Cascade Assay, Stomach, Activity Value (ED50) (rat stomach fundus) | Test E Cascade Assay, Colon, Activity Value (ED50) (rat colon) | Test E Cascade Assay, Rectum, Activity Value (ED50) (chick rectum) | Test E Cascade Assay, Aorta, Activity Value (ED50) (rabbit aortic strip) | EC50 (Rat Uterus) | inhibition of aggregation of human platelets, in words [4] |
| --- | --- | --- | --- | --- | --- | --- | --- | --- | --- | --- | --- | --- |
| CCCCC[C@H](O)/C=C/[C@H]1[C@H](O)CC(=O)[C@@H]1C/C=C\CCCC(=O)O [PGE2] | stimulate steroidogenesis in the adrenal glands | potent oxytocic effects in inducing labor | inhibit transmitter release from adrenergic nerve endings |  |  |  |  |  |  |  |  |  |
| CCCCC[C@H](O)/C=C/[C@@H]1[C@@H](CCCCCCC(=O)O)[C@@H](O)C[C@H]1O [PGF1α] | stimulate steroidogenesis in the adrenal glands |  |  |  |  |  |  |  |  |  |  |  |
| COC(=O)CCCCCC[C@H]1C(=O)C[C@@H](O)[C@@H]1/C=C/[C@@H](O)C1CC2(CCC2)C1 [TR-4121, Methyl 7-{3R-hydroxy-5-oxo-2R-[3S-hydroxy-3-(spiro[3.3]hept-2-yl)-1E-propenyl]cyclopent-1R-yl}heptanoate] |  |  |  | 1 (26-50, not significant) | 2 (0.11 - 1.0) | > 0.01 mg/kg | 0 (>10000) | 0 (>10000) | 0 (>10000) | 0 (>10000) | > 10 µg/mL |  |
| COC(=O)CCCCCC[C@@H]1[C@@H](/C=C/[C@@H](O)C2CC3(CCC3)C2)[C@H](O)C[C@@H]1O [TR-4139, Methyl 7-{3R,5S-dihydroxy-2R-[3S-hydroxy-3-(spiro[3.3]hept-2-yl)-1E-propenyl]cyclopent-1R-yl}heptanoate] |  |  |  | 0 (<26) | 0 (>10.0) | > 0.01 mg/kg | 0 (>10000) | 0 (>10000) | 0 (>10000) | 0 (>10000) | > 10 µg/mL |  |
| COC(=O)CCCCCC[C@H]1C(=O)C[C@@H](O)[C@@H]1/C=C/[C@@H](O)C1(C)CC2(CCC2)C1 [TR-4845, Methyl 7-{3R-hydroxy-5-oxo-2R-[3R-hydroxy-3-(2-methylspiro[3.3]hept-2-yl)-1E-propenyl]cyclopent-1R-yl}heptanoate] |  |  |  | 3 (51-75) |  |  | 0 (>10000) | 0 (>10000) | 0 (>10000) | 0 (>10000) | > 10 µg/mL | inhibit aggregation of platelets |
